Test results as given in patent US20110086759A1, “CHEMICAL COMPOUNDS” (SYNGENTA CROP PROTECTION, INC., priority 2007, published 2011).

Experiments:
Assay type in all cases: in vivo
[1] = tested on: Echinochloa crus-galli (ECHCG); assay: Post-emergence biological efficacy, glasshouse pot test; details: 312 h, post-emergence, 1,000 g/ha, evaluated after 13 days (100=total damage; 0=no damage), read-out: Percentage damage caused to weed species, ECHCG
Experimental: (§1) Seeds of Alopecurus myosuroides (ALOMY), Setaria faberi (SETFA), Echinochloa crus-galli (ECHCG), Solanum nigrum (SOLNI), Amaranthus retoflexus (AMARE) and Ipomea hederaceae (IPOHE) were sown in standard soil in pots. After cultivation for 8 days under controlled conditions in a glasshouse (at 24/16° C., day/night; 14 hours light; 65% humidity), the plants were sprayed with an aqueous spray solution derived from the formulation of the technical active ingredient in acetone/water (50:50) solution containing 0.5% Tween 20 (polyoxyethelyene sorbitan monolaurate, CAS RN 9005-64-5) to give a final dose of 1000 or 250 g/ha of test compound.
(§2) The test plants were then grown on under controlled conditions in a glasshouse (at 24/16° C., day/night; 14 hours light; 65% humidity) and watered twice daily. After 13 days the test was evaluated (100=total damage to plant; 0=no damage to plant).

[2] = tested on: Ipomea hederaceae (IPOHE); assay: as above; details: Ipomoea hederacea, 312 h; post-emergence, 1,000 g/ha, evaluated after 13 days (100=total damage; 0=no damage); read-out: Percentage damage caused to weed species, IPOHE
Experimental: as §1, §2

[3] = tested on: Setaria faberi (SETFA); assay: as above; details: 312 h, post-emergence, 1,000 g/ha, evaluated after 13 days (100=total damage; 0=no damage), read-out: Percentage damage caused to weed species, SETFA
Experimental: as §1, §2

[4] = tested on: Solanum nigrum (SOLNI); assay: as above; details: 312 h, post-emergence, 1,000 g/ha, evaluated after 13 days (100=total damage; 0=no damage), read-out: Percentage damage caused to weed species, SOLNI
Experimental: as §1, §2

[5] = tested on: Alopecurus myosuroides (ALOMY); assay: as above; details: 312 h, post-emergence, 1,000 g/ha, evaluated after 13 days (100=total damage; 0=no damage), read-out: Percentage damage caused to weed species, ALOMY
Experimental: as §1, §2

[6] = tested on: Amaranthus retoflexus (AMARE); assay: as above; details: Amaranthus retroflexus, 312 h; post-emergence, 1,000 g/ha, evaluated after 13 days (100=total damage; 0=no damage); read-out: Percentage damage caused to weed species, AMARE
Experimental: as §1, §2

[7] = tested on: Echinochloa crus-galli (ECHCG); assay: Pre-emergence biological efficacy, glasshouse pot test; details: 312 h, pre-emergence, 1,000 g/ha, evaluated after 13 days (100=total damage; 0=no damage), read-out: Percentage damage ECHCG
Experimental: as §1, with “one day” for “8 days”
(§3) The test plants were then grown under controlled conditions in the glasshouse (at 24/16° C., day/night; 14 hours light; 65% humidity) and watered twice daily. After 13 days the test was evaluated (100=total damage to plant; 0=no damage to plant).

[8] = tested on: Ipomea hederaceae (IPOHE); assay: as above; details: Ipomoea hederacea, 312 h; pre-emergence, 1,000 g/ha, evaluated after 13 days (100=total damage; 0=no damage); read-out: Percentage damage IPOHE
Experimental: as §1, with “one day” for “8 days”
as §3

[9] = tested on: Setaria faberi (SETFA); assay: as above; details: 312 h, pre-emergence, 1,000 g/ha, evaluated after 13 days (100=total damage; 0=no damage), read-out: Percentage damage SETFA
Experimental: as §1, with “one day” for “8 days”
as §3

[10] = tested on: Solanum nigrum (SOLNI); assay: as above; details: 312 h, pre-emergence, 1,000 g/ha, evaluated after 13 days (100=total damage; 0=no damage), read-out: Percentage damage SOLNI
Experimental: as §1, with “one day” for “8 days”
as §3

[11] = tested on: Alopecurus myosuroides (ALOMY); assay: as above; details: 312 h, pre-emergence, 1,000 g/ha, evaluated after 13 days (100=total damage; 0=no damage), read-out: Percentage damage ALOMY
Experimental: as §1, with “one day” for “8 days”
as §3

[12] = tested on: Amaranthus retoflexus (AMARE); assay: as above; details: Amaranthus retroflexus, 312 h; pre-emergence, 1,000 g/ha, evaluated after 13 days (100=total damage; 0=no damage); read-out: Percentage damage AMARE
Experimental: as §1, with “one day” for “8 days”
as §3

| Structure (SMILES) | pest or weed control at 1000 g/ha [1] | pest or weed control at 1000 g/ha [2] | pest or weed control at 1000 g/ha [3] | pest or weed control at 1000 g/ha [4] | pest or weed control at 1000 g/ha [5] | pest or weed control at 1000 g/ha [6] | pest or weed control at 1000 g/ha [7] | pest or weed control at 1000 g/ha [8] | pest or weed control at 1000 g/ha [9] | pest or weed control at 1000 g/ha [10] | pest or weed control at 1000 g/ha [11] | pest or weed control at 1000 g/ha [12] |
| --- | --- | --- | --- | --- | --- | --- | --- | --- | --- | --- | --- | --- |
| COC(=O)c1nc(C2CC2)nc(N[C@@H](C)C(=O)OCc2ccccc2)c1Cl [4-272 (S), 5-Chloro-2-cyclopropyl-6-methoxycarbonyl-4-[(1S)-1-(phenylmethoxy-carbonyl)ethylamino]-pyrimidine] | 30% | 60% | 60% | 80% | 20% | 100% | 30% | 70% | 20% | 80% | 10% | 70% |
| COC(=O)c1nc(C2CC2)nc(N[C@@H](CO)Cc2ccccc2)c1Cl [4-273 (R), 5-Chloro-2-cyclopropyl-4-[(1R)-1-hydroxymethyl-2-phenyl-ethylamino]-6-methoxycarbonyl-pyrimidine] | 60% | 90% | 60% | 90% | 30% | 100% | 60% | 100% | 70% | 80% | 50% | 80% |
| COC(=O)c1nc(C2CC2)nc(N[C@H](CO)Cc2ccccc2)c1Cl [4-273 (S), 5-Chloro-2-cyclopropyl-4-[(1S)-1-hydroxymethyl-2-phenyl-ethylamino]-6-methoxy-carbonylpyrimidine] | 60% | 90% | 70% | 100% | 50% | 100% | 60% | 90% | 80% | 90% | 40% | 100% |
| COC(=O)c1nc(C2CC2)nc(N[C@H](CO)[C@H](O)c2ccc([N+](=O)[O-])cc2)c1Cl [4-275 (R,R), 5-Chloro-2-cyclopropyl-4-[(1R, 2R)-2-hydroxy-1-hydroxymethyl-2-(4-nitrophenyl)-ethylamino]-6-methoxycarbonyl-pyrimidine] | 70% | 100% | 80% | 100% | 30% | 100% | 60% | 100% | 70% | 90% | 70% | 100% |
| COC(=O)c1nc(C2CC2)nc(N[C@@H](CO)[C@@H](O)c2ccc([N+](=O)[O-])cc2)c1Cl [4-275 (S,S), 5-Chloro-2-cyclopropyl-4-[(1S, 2S)-2-hydroxy-1-hydroxymethyl-2-(4-nitrophenyl)-ethylamino]-6-methoxycarbonyl-pyrimidine] | 60% | 70% | 80% | 100% | 40% | 100% | 30% | 100% | 60% | 100% | 30% | 100% |
| COC(=O)c1nc(C2CC2)nc(N[C@H](CO)CSCc2ccccc2)c1Cl [4-276 (R), 5-Chloro-2-cyclopropyl-4-[(1R)-1-hydroxymethyl-2-phenylmethylthio-ethylamino]-6-methoxycarbonyl-pyrimidine] | 30% | 40% | 40% | 80% | 20% | 100% | 30% | 80% | 30% | 90% | 20% | 100% |
| COC(=O)c1nc(C2CC2)nc(N[C@H](c2ccccc2)[C@@H](O)c2ccccc2)c1Cl [4-280 (1R,2S), 5-Chloro-2-cyclopropyl-4-[(1R, 2S)-1,2-diphenyl-2-hydroxy-ethyl-amino]-6-methoxy-carbonylpyrimidine] | 50% | 70% | 70% | 80% | 40% | 100% | 20% | 90% | 10% | 80% | 10% | 60% |
| COC(=O)c1nc(C2CC2)nc(N[C@@H](c2ccccc2)[C@H](O)c2ccccc2)c1Cl [4-280 (1S,2R), 5-Chloro-2-cyclopropyl-4-[(1S, 2R)-1,2-diphenyl-2-hydroxy-ethylamino]-6-methoxycarbonyl-pyrimidine] | 60% | 100% | 80% | 100% | 40% | 100% | 40% | 80% | 30% | 90% | 20% | 100% |
| COC(=O)c1nc(C2CC2)nc(N[C@@H](CC2CCCCC2)C(=O)OC)c1Cl [4-282 (S), 5-Chloro-4-[(1S)-2-cyclohexyl-1-methoxycarbonyl-ethylamino]-2-cyclopropyl-6-methoxycarbonyl-pyrimidine] | 20% | 80% | 60% | 80% | 20% | 100% | 30% | 80% | 20% | 90% | 10% | 90% |
